From patent US20150031628A1, “METHODS AND FORMULATIONS FOR CONVERTING INTRAVENOUS AND INJECTABLE DRUGS INTO ORAL DOSAGE FORMS” (ZOMANEX, LLC, priority 2007, published 2015)

Experiments:
[1] = in vivo; settings: female, beagle, dog, plasma, po, 20 mg
Description: (§1) To these ends, pharmacokinetic studies were performed in five naïve, female beagle dogs with each drug dosed in a formulation system using a crossover design, with a one week wash out period between doses. […] Following a 16-hour fast, the animals were fed a small amount (approximately ¼ can) of Hill/s Science Diet A/D and thirty minutes later each animal was orally dosed with one of the formulations of the appropriate test article. Blood samples were drawn 0.5, 1.0, 1.5, 3.0, 4.5, 8.0, and 24 hours after dosing.
Solid Preparation—Paclitaxel. Solid Paclitaxel (300 mg), soy sterols (300 mg) and lysolecithin (900 mg) were added to a 30 mL glass tube and chloroform (3.0 ml) was added. After the solids were dissolved with gentle heating in a 60° C. water bath, the solvent was removed under a stream of nitrogen. The mass was then pumped on under vacuum to remove residual solvent. Addition of water (15 mL) softened the solid mass and the mixture was then sonicated in an ice bath for two minutes on 40% power, followed by two minutes sonication on 50% power and then two minutes sonication on 60% power. […]
Absorption Experiment With Solid Formulations. After dosing with each formulation, all the blood samples were processed and analyzed as described for the liquid formulations.

[2] = in vivo; settings: female, beagle, dog, plasma, po, 20 mg; remark: listed apart in the source
Description: as §1
The liquid was then dosed to the animal with a syringe. Water was then added to the syringe and the washing was administered to the dog.
After dosing with each formulation, all the blood samples were collected in a sodium heparin anticoagulant tube, processed to plasma and frozen at −80° C. Plasma Paclitaxel concentration at each time point for each of the five dogs was determined by high throughput liquid chromatographic-tandem mass spectrometric quantification at Bioanalytical Systems (McMinnville, Oreg.). […] To quantitate the absorption changes, the area under the curve (AUC0→∞) was calculated for each formulation system and the results are shown in the Table below.

AUC(0-inf) [1]: 28.9 ± 7.1 ng·h/mL
AUC(0-inf) [2]: 28.9 ± 7.1 ng·h/mL
SMILES: CC(=O)O[C@H]1C(=O)[C@@]2(C)[C@H]([C@H](OC(=O)c3ccccc3)[C@]3(O)C[C@H](OC(=O)[C@H](O)[C@@H](NC(=O)c4ccccc4)c4ccccc4)C(C)=C1C3(C)C)[C@]1(OC(C)=O)CO[C@@H]1C[C@@H]2O [Unformulated Paclitaxel, Paclitaxel]
